Patent publication US20230270721A1, “INHIBITION OF BAX-MEDIATED CELL DEATH BY ELTROMBOPAG” (Albert Einstein College of Medicine, priority 2020, published 2023)

Legend:
BAX-4C R134E R145E = molecular target: T1, BAX-4C R134E R145E (Homo sapiens, UniProt Q07812, C126S/C62S/R134E/R145E/S4C); assay: Microscale thermophoresis (MST) direct binding, double mutant; details: double mutant versus wild type BAX-4C
T1 construct: Human full-length (1-192) wild-type BAX (Q07812); made in house; host or cells: E. coli BL21 (DE3) CodonPlus (DE3)-RIPL
Experimental: Recombinant BAX C62S-C126S-S5C (4C), previously established for evaluating BAX (Garner, T.P., et al. Nat Chem Biol 15, 322-330 (2019)) binding compounds with MST, or BAX C62S-C126S-S5C-R134E-R145E (R134E-R145E-4C) was labeled at cysteine using the Monolith Protein Labeling Kit Red Maleimide (NanoTemper Technologies) according to the instructions of the manufacturer (Garner, T.P., et al. Nat Chem Biol 15, 322-330 (2019)). Briefly, 10 µM protein was incubated with 0.9 equivalents of dye in MST buffer (100 mM potassium phosphate, pH 7.4, 150 mM NaCI) in the dark at room temperature (22-25° C.) for 1 hr. Unreacted dye was quenched using 5 mM DTT and removed using the manufacturer-provided buffer exchange column. […] Samples were loaded into standard glass capillaries (Monolith NT.155 Capillaries) and analyzed by MST using a Monolith NT.115 Blue/Red, LED power and IR laser power of 80%. Fraction bound and error was generated by NanoTemper software (MO.Affinity Analysis), and KD values were determined using GraphPad Prism nonlinear fit four-parameter agonist versus response with restraints for 0 and 1 fraction bound.
With this known, the EO docking poses were reevaluated, and the top pose featuring an ionic interaction between the EO-carboxylate and sidechain of R145 was analyzed (FIGS. 2E, 2F, and 2G). […]

BAX R134E R145E = molecular target: T2, BAX R134E R145E (Homo sapiens, UniProt Q07812, R134E/R145E); assay: Liposomal permeabilization assay, double mutant; assay type: biochemical; details: 250 nM BAX and 5 nM tBID; read-out: IC50, inhibition of liposomal release
T2 construct: Human full-length (1-192) wild-type BAX (Q07812); made in house; host or cells: E. coli BL21 (DE3) CodonPlus (DE3)-RIPL
Experimental: (§1) Lipids (Avanti Polar Lipids) at the following ratio, phosphatidylcholine 48%, phosphatidylinositol 10%, dioleoyl phosphatidylserine 10%, phosphatidylethanolamine, 28%, and tetraoleoyl cardiolipin 4%, were mixed in a total of 1 mg, dried and resuspended in 10 mM HEPES, pH 7, 200 mM KCI, and 5 mM MgCl2 with 12.5 mM 8-aminonaphthalene-1,3,6-trisulfonic acid (ANTS) dye and 45 mM p-xylene-bis-pyridinium bromide (DPX) quencher (Molecular Probes) using a water bath sonicator. Liposomes were formed by extrusion of the suspension using Avanti Mini-Extruder (Cat # 610000) with polycarbonate membranes of 0.1 µm pore size (Avanti Polar Lipids). […] ANTS/DPX release was quantified based on the increase in fluorescence intensity that occurs when the ANTS fluorophore is separated from the DPX quencher upon release from the liposomes into solution. Fluorescence (λex = 355 nm and λem = 520 nm) was measured at 1 minute intervals at room temperature (22-25° C.) indicated using a Tecan Infinite M1000 plate reader. In the case of heat activation, reactions were set up as described in the absence of tBID or BIM, and experiments were recorded at 42° C. The percentage release of ANTS/DPX at any given time point was calculated as percentage release=((F-F0)/(F100-F0))(100), where F0 and F100 are baseline and maximal fluorescence, respectively. […]

BAX R134E = molecular target: T3, BAX R134E (Homo sapiens, UniProt Q07812, R134E); assay: Liposomal permeabilization assay, trigger site mutant R134E; assay type: biochemical; details: 250 nM BAX and 5 nM tBID
T3 construct: Human full-length (1-192) wild-type BAX (Q07812); made in house; host or cells: E. coli BL21 (DE3) CodonPlus (DE3)-RIPL
Experimental: as §1

3T3 cells = assay: Caspase 3/7 activation assay, ABT-263 + S63845; assay type: cell-based, murine; details: 1 µM ABT-263 and 1 µM S63845, 4 hr
Experimental: 3T3 cells were maintained in media identical to that of MEFs. 3T3 cells were seeded (1×10^4 cells/well) in 96-well opaque plates for 18-24 hr. The media was removed and replaced with media lacking FBS, and cells were treated with EO as a 10X stock in H2O at the indicated doses for 2 hr before addition of 10% FBS. Cells were then treated with 1 µM each of ABT-263 and S63845. Caspase 3/7 activation was measured at 4 hr by addition of the Caspase-Glo 3/7 chemiluminescence reagent in accordance with the manufacturer’s protocol (Promega). Luminescence was detected by an F200 PRO microplate reader (TECAN). Percentage caspase activation was normalized to ABT-263 + S63845 alone (100%) and untreated cells (0%). Viability assays were performed at 24 hr by addition of CellTiter-Glo according to the manufacturer’s protocol (Promega). Luminescence was detected by an F200 PRO microplate reader (TECAN). Percentage viability was normalized to untreated cells (100%).
Next, whether EO is capable of rescuing cell death in cells expressing both BAX and BAK was determined. 3T3 cells, a murine fibroblast cell line, were treated with a combination of BH3-mimetics navitoclax (ABT-263) and S63845, which only in combination cause significant cytotoxicity in fibroblast cells.

T3 sequence (Q07812 whole entry R134E): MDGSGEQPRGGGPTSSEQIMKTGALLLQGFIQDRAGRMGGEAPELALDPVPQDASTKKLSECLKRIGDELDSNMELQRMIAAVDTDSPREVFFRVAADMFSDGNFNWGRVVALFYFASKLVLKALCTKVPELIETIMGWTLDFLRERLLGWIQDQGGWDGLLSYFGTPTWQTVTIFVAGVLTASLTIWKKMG
T2 sequence (Q07812 whole entry R134E/R145E): as the sequence (Q07812 whole entry R134E) above, with R145E counted along it
T1 sequence (Q07812 whole entry S4C/C62S/C126S/R134E/R145E): as the sequence (Q07812 whole entry R134E) above, with S4C, C62S, C126S, R145E counted along it

SMILES: CC1=NN(c2ccc(C)c(C)c2)C(=O)/C1=N\Nc1cccc(-c2cccc(C(=O)O)c2)c1O [EO, eltrombopag]
- affinity as determined by MST (BAX-4C R134E R145E): markedly reduced affinity
- IC50 (BAX R134E R145E): > 10 µM
- inhibition of liposomal release versus BAX WT (BAX R134E): slight trend towards weaker inhibition
- apoptosis mediated by caspase 3/7 activity (3T3 cells): significant reduction of apoptosis
